Assay results published in PMC10598577 (JACS Au, 2023).
Entries after “also recorded” stand apart in the source; their conditions may differ.

Columns and labels:
MopR M100K_V116D = MopR M100K_V116D (Acinetobacter guillouiae, UniProt Q43965, M100K/V116D); settings: salt bridge mutant M100K_V116D, ligand phenol
MopR M100K_L119D = settings: salt bridge mutant M100K_L119D, ligand phenol
[1] = system: MopR second barrier residues (F99, F132) mutated to leucine; settings: F99, F132 mutated to nonaromatic leucine, ligand phenol
MopR H106A = settings: cited from earlier work
MopR W134A = settings: cited from earlier work
wild type MopR [2] = target: T1, wild type MopR (Acinetobacter guillouiae, UniProt Q43965); test: biochemical
T1 sequence (Q43965 1-229): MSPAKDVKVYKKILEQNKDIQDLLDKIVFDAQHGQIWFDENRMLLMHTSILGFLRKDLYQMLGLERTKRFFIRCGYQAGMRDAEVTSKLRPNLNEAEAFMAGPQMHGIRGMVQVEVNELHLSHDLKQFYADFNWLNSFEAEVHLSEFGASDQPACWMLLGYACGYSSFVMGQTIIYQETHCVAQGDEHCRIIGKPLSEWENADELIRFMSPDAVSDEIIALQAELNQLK

MopR M100Q_V116N = MopR M100Q_V116N (Acinetobacter guillouiae, UniProt Q43965, M100Q/V116N); test: biochemical
MopR M100Q_L119N = MopR M100Q_L119N (Acinetobacter guillouiae, UniProt Q43965, L119N/M100Q); test: biochemical
MopR M100V_L119V = MopR M100V_L119V (Acinetobacter guillouiae, UniProt Q43965, L119V/M100V); test: biochemical
wild type MopR [3] = target: T1, wild type MopR; settings: wild type MopR sensor domain; previous ITC studies; cited from earlier work

| SMILES | binding (ITC) (MopR M100K_V116D) | binding (ITC) (MopR M100K_L119D) | binding affinity (ITC) [1] | Kd (MopR H106A) [µM] | Kd (MopR W134A) [nM] | Kd (wild type MopR [2]) [nM] | Kd (MopR M100Q_V116N) [µM] | Kd (MopR M100Q_L119N) [nM] | Kd (MopR M100V_L119V) [nM] | ligand selection profile of MopR (binding, in words) (wild type MopR [3]) |
| --- | --- | --- | --- | --- | --- | --- | --- | --- | --- | --- |
| Oc1ccccc1 [phenol] | no detectable binding | no detectable binding | significantly decrease the binding affinity | 7.86 ± 0.01 | 2870 ± 10 | 460 ± 60 | 4.35 ± 0.07 | 2700 ± 500 | 450 ± 60 |  |
| c1ccccc1 [benzene] |  |  |  |  |  |  |  |  |  | significantly decreased affinity; also recorded: little or negligible binding |
